Target: T1, human nuclease enzyme Caf1/CNOT7 (Homo sapiens, UniProt Q9UIV1)
Experiment: not given
Design: method as in PMID 24170810
Settings: n = 3; read-out: originally reported IC50 versus Caf1/CNOT7; cited from earlier work

T1 sequence (Q9UIV1 whole entry): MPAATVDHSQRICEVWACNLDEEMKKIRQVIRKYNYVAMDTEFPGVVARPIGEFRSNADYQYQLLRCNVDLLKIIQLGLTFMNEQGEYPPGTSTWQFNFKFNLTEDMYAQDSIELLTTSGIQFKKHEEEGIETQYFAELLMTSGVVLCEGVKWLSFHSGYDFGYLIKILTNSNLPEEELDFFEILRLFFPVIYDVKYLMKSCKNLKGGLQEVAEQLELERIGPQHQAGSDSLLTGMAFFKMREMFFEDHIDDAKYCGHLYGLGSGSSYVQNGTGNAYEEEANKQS

Compound	IC50 [µM]
COc1cc(Cl)c(C)cc1-n1cc(C(=O)c2cc(Br)ccc2O)cc(C#N)c1=O	14.6 ± 3.1

Target: T1, human nuclease enzyme Caf1/CNOT7
Experiment: fluorescence-based nuclease activity assay
Type: biochemical
Settings: mean ± standard error; 0.4 µM Caf1/CNOT7, 1 µM Flc-RNA substrate, 30 °C, 60 min; read-out: IC50 versus Caf1/CNOT7
Description: Purity of the compounds was verified by LC-MS. The inhibitory activity of the compounds was assessed using a fluorescence-based activity assay described before. Briefly, purified Caf1/CNOT7 was pre-incubated in the presence of compound or vehicle only (DMSO) before addition of a Fluorescein-labelled RNA oligonucleotide substrate. The composition of the final reaction mixture (10 µL) was: 0.4 µM Caf1/CNOT7, 1 µM Flc-RNA substrate, 20 mM Tris–HCl pH 7.9, 50 mM NaCl, 2 mM MgCl2, 10% glycerol, 1 mM β-mercaptoethanol and 5% DMSO. After incubation at 30 °C for 60 min, 10 µL probe mix (5 µM TAMRA-DNA probe, 1% SDS and 20 mM Tris–HCl pH 8.0, 0.5 mM EDTA) was added. Fluorescence intensity was measured using a BioTek Synergy HT plate reader (Agilent, Cheshire, UK) using the filters 485 ± 20 nm (excitation) and 528 ± 20 nm (emission). Raw data were analysed in Microsoft Excel and non-linear regression was carried out using GraphPad Prism 6. Statistical analysis (one-way ANOVA with post-hoc Dunnett’s test) was also carried out using GraphPad Prism.

Compound	IC50 [µM]
CCOC(=O)c1ccc(-n2cc(C(=O)c3cc(Br)ccc3O)cc(C#N)c2=O)cc1 [Compound 9]	33.2 ± 0.5
N#Cc1cc(C(=O)c2cc(Br)ccc2O)cn(-c2cc(Cl)cc(Cl)c2)c1=O [Compound 17]	19.2 ± 1.1
CCc1ccc(-n2cc(C(=O)c3cc(Br)ccc3O)cc(C#N)c2=O)cc1 [Compound 7]	39 ± 2.6
N#Cc1cc(C(=O)c2cc(Br)ccc2O)cn(-c2ccccc2Cl)c1=O [Compound 3]	65.6 ± 3.3
COc1ccccc1-n1cc(C(=O)c2cc(Br)ccc2O)cc(C#N)c1=O [Compound 6]	80.9 ± 9.2
COc1cc(Cl)c(C)cc1-n1cc(C(=O)c2cc(Br)ccc2O)cc(C#N)c1=O [Compound 1, 5-(5-bromo-2-hydroxybenzoyl)-1-(4-chloro-2-methoxy-5-methylphenyl)-2-oxo-1,2-dihydropyridine-3-carbonitrile]	24.1 ± 3.3
N#Cc1cc(C(=O)c2cc(Br)ccc2O)cn(-c2ccc(Cl)cc2)c1=O [Compound 8]	32.2 ± 1.6
COc1cc(Cl)c(C)cc1-n1cc(C(=O)c2cc(F)ccc2O)cc(C#N)c1=O [Compound 11]	33.6 ± 1.1
Cc1ccccc1-n1cc(C(=O)c2cc(Br)ccc2O)cc(C#N)c1=O [Compound 16]	44.5 ± 3.6
Cc1cccc(-n2cc(C(=O)c3cc(Br)ccc3O)cc(C#N)c2=O)c1 [Compound 15]	31.8 ± 1.8
Cc1ccc(-n2cc(C(=O)c3cc(Br)ccc3O)cc(C#N)c2=O)cc1 [Compound 14]	57.5 ± 4.7
N#Cc1cc(C(=O)c2cc(Br)ccc2O)cn(-c2cccc(C(F)(F)F)c2)c1=O [Compound 10]	42.1 ± 1.4
N#Cc1cc(C(=O)c2cc(Br)ccc2O)cn(-c2ccccc2Oc2ccccc2)c1=O [Compound 4]	39.3 ± 1.6
N#Cc1cc(C(=O)c2cc(Br)ccc2O)cn(-c2ccccc2)c1=O [Compound 12]	108 ± 4
N#Cc1cc(C(=O)c2cc(Br)ccc2O)cn(-c2ccc(F)c(Cl)c2)c1=O [Compound 13]	47 ± 2.7
COc1ccc(-n2cc(C(=O)c3cc(Br)ccc3O)cc(C#N)c2=O)cc1 [Compound 5]	81.1 ± 5

Same assay, conditions: ratio of IC50 values versus compound 1

Compound	fold lower potency compared to 1
COc1cc(Cl)c(C)cc1-n1cc(C(=O)c2cc(F)ccc2O)cc(C#N)c1=O [Compound 11]	< 2 fold
N#Cc1cc(C(=O)c2cc(Br)ccc2O)cn(-c2ccccc2)c1=O [Compound 12]	4–5 fold

Test system: Caf1/CNOT7
Experiment: not given
Design: method as in PMID 24170810
Settings: cited from earlier work

Compound	activity in gel-based assay	selectivity
COc1cc(Cl)c(C)cc1-n1cc(C(=O)c2cc(Br)ccc2O)cc(C#N)c1=O [Compound 1, 5-(5-bromo-2-hydroxybenzoyl)-1-(4-chloro-2-methoxy-5-methylphenyl)-2-oxo-1,2-dihydropyridine-3-carbonitrile]	confirmed	selective to Caf1/CNOT7

Source: publication PMC11870035, “Discovery of Substituted 5-(2-Hydroxybenzoyl)-2-Pyridone Analogues as Inhibitors of the Human Caf1/CNOT7 Ribonuclease” (Molecules, 2024)
